The record followed here is the supplement of paper PMC9938120.

The structures appear in SMILES notation.

Common to all, as to assay: drug sensitivity score (DSS3, normalised partial AUC of % inhibition dose-response) (DSS (score)); higher = more sensitive (stronger inhibition of viability); extreme values may be limits of the assay
One experiment deals with FMOC02_1 (patient-derived low-grade serous ovarian cancer cells). As to conditions: 72 h; library: FO5A; assay format: 2D, 384-well, CellTiter-Glo. The procedure, abridged:
(§1)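 Cells were dispensed onto 384-well flat clear-bottom plates already holding compounds at five concentrations over a 10,000-fold range, using patient-derived ovarian cancer cells at passage under 10. Incubation lasted 72 h at 37 °C in 5% CO2, after which CellTiter-Glo viability data were processed in Breeze. Higher drug sensitivity scores, each a partial area under the percent-inhibition dose-response curve divided by the log of the upper asymptote, mean more sensitive cells.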
For orientation: In ATP-based viability assays light output follows the ATP content of the culture.

The test system of another experiment is FMOC02_2 (patient-derived low-grade serous ovarian cancer cells). As to conditions: 72 h; library: FO5A; assay format: 2D, 384-well, CellTiter-Glo. The method in brief:
as §1

For a further experiment, the system named is FMOC02_3 (patient-derived low-grade serous ovarian cancer cells). As to conditions: 72 h; library: FO5A; assay format: 2D, 384-well, CellTiter-Glo. The procedure, abridged: as §1
A further experiment relates to FMOC03 (patient-derived mucinous ovarian cancer cells). As to conditions: 72 h; library: FO5A; assay format: 2D, 384-well, CellTiter-Glo. The procedure, abridged:
as §1

Another experiment relates to FMOC04 (patient-derived high-grade serous ovarian cancer cells). The conditions noted are these: 72 h; library: FO5A; assay format: 2D, 384-well, CellTiter-Glo. The procedure, abridged:
as §1

In a further experiment the test system is FMOC06 (patient-derived mucinous ovarian cancer cells). The conditions noted are these: 72 h; library: FO5A; assay format: 2D, 384-well, CellTiter-Glo. The procedure, abridged: as §1
In a further experiment the test system is FMOC09 (patient-derived high-grade serous ovarian cancer cells). The conditions noted are these: 72 h; library: FO5A; assay format: 2D, 384-well, CellTiter-Glo. The method in brief: as §1
Another experiment deals with FMOC11 (patient-derived high-grade serous ovarian cancer cells). The conditions noted are these: 72 h; library: FO5A; assay format: 2D, 384-well, CellTiter-Glo. The procedure, abridged:
as §1

A further experiment has as its system FMOC14 (patient-derived high-grade serous ovarian cancer cells). The conditions noted are these: 72 h; library: FO5A; assay format: 2D, 384-well, CellTiter-Glo. The procedure, abridged:
as §1

Another experiment deals with FMOC17 (patient-derived low-grade serous ovarian cancer cells). As to conditions: 72 h; library: FO5A; assay format: 2D, 384-well, CellTiter-Glo. The procedure, abridged: as §1
Another experiment has as its system FMOC22 (patient-derived mucinous ovarian cancer cells). The conditions noted are these: 72 h; library: FO5A; assay format: 2D, 384-well, CellTiter-Glo. The procedure, abridged:
as §1

For another experiment, the system named is FMOC24 (patient-derived high-grade serous ovarian cancer cells). As to conditions: 72 h; library: FO5A; assay format: 2D, 384-well, CellTiter-Glo. The procedure, abridged:
as §1

For the next experiment, the system named is FMOC25_1 (patient-derived low-grade serous ovarian cancer cells). The conditions noted are these: 72 h; library: FO4B; assay format: 2D, 384-well, CellTiter-Glo. The method in brief: as §1
Another experiment deals with FMOC25_2 (patient-derived low-grade serous ovarian cancer cells). The conditions noted are these: 72 h; library: FO5A; assay format: 2D, 384-well, CellTiter-Glo. The method in brief:
as §1

The subject of a further experiment is FMOC27 (patient-derived low-grade serous ovarian cancer cells). As to conditions: 72 h; library: FO5A; assay format: 2D, 384-well, CellTiter-Glo. The method in brief:
as §1

The test system of the next experiment is FMOC28 (patient-derived low-grade serous ovarian cancer cells). The conditions noted are these: 72 h; library: FO5A; assay format: 2D, 384-well, CellTiter-Glo. The method in brief: as §1

For the compound `CCCC(CCC)C(=O)O` [Valproic acid], the drug sensitivity score in the experiment with FMOC02_1, in the experiment on FMOC02_2, in the experiment on FMOC02_3, with FMOC03, in the experiment with FMOC04 and with FMOC06 was 0 in each case. Moreover, the drug sensitivity score in the experiment on FMOC09, in the experiment with FMOC11, with FMOC14, in the experiment with FMOC17, with FMOC22 and with FMOC24 was 0 each time. The drug sensitivity score with FMOC25_1 worked out at 0; in the experiment with FMOC25_2, 0; in the experiment with FMOC27, 0; with FMOC28, 0.1.

`COc1cc2/c(=N/c3ccc(Br)cc3F)nc[nH]c2cc1OCC1CCN(C)CC1` [Vandetanib]: the drug sensitivity score with FMOC02_1 is 5.6; in the experiment with FMOC02_2, 6.3; with FMOC02_3 it was 5.1; with FMOC03, 2.7; with FMOC04, 0.55; in the experiment with FMOC06 it was 0.7. Moreover, the drug sensitivity score amounted to 3.1 with FMOC09; 3.1 with FMOC11; 0.1 with FMOC14; 6.2 in the experiment on FMOC17; 0 with FMOC22; 1.7 in the experiment with FMOC24. Further, the drug sensitivity score in the experiment with FMOC25_1 amounted to 1.4; in the experiment with FMOC25_2 it was 4.1; with FMOC27 it was 4.8; in the experiment on FMOC28 it was 2.1.

As for `CCc1c(C(=O)C(N)=O)c2c(OCC(=O)O)cccc2n1Cc1ccccc1` [Varespladib], the drug sensitivity score with FMOC02_1, in the experiment on FMOC02_2, in the experiment with FMOC02_3, with FMOC03, in the experiment with FMOC04 and with FMOC06 was 0 in each case. Besides, the drug sensitivity score amounted to 0 in the experiment on FMOC09; 0 in the experiment with FMOC11; 0 with FMOC14; 0 in the experiment on FMOC17; 0 with FMOC22; 0.1 in the experiment on FMOC24. Besides, the drug sensitivity score in the experiment with FMOC25_1, in the experiment with FMOC25_2, with FMOC27 and in the experiment on FMOC28 was 0 each time.

Turning to `Clc1ccc(Nc2nnc(Cc3ccncc3)c3ccccc23)cc1` [Vatalanib], the drug sensitivity score with FMOC02_1 amounted to 0.2; in the experiment with FMOC02_2, 0.9; in the experiment with FMOC02_3 it was 0; with FMOC03, 0.2; in the experiment on FMOC04, 0; in the experiment with FMOC06 it was 0. The drug sensitivity score with FMOC09 is 0; in the experiment with FMOC11, 0; in the experiment with FMOC14, 0; in the experiment on FMOC17, 0; with FMOC22, 0; in the experiment on FMOC24, 2.8. Also, the drug sensitivity score was 0 in the experiment with FMOC25_1, 0.7 in the experiment with FMOC25_2, 0 in the experiment with FMOC27 and 3 with FMOC28.

Regarding `C[C@]1(c2nc3c(C(N)=O)cccc3[nH]2)CCCN1` [Veliparib], the drug sensitivity score turned out to be 0.4 in the experiment on FMOC02_1; 1.6 with FMOC02_2; 3.2 with FMOC02_3; 0 with FMOC03; 0 in the experiment on FMOC04; 0 in the experiment on FMOC06. Besides, the drug sensitivity score in the experiment with FMOC09 is 0; in the experiment on FMOC11, 0; with FMOC14 it was 0; in the experiment on FMOC17, 0; in the experiment on FMOC22, 0; in the experiment on FMOC24, 1.3. The drug sensitivity score with FMOC25_1 came to 0.1; in the experiment on FMOC25_2 it was 1.6; with FMOC27, 1.4; with FMOC28, 0.

With `CCCS(=O)(=O)Nc1ccc(F)c(C(=O)c2c[nH]c3ncc(-c4ccc(Cl)cc4)cc23)c1F` [Vemurafenib], the drug sensitivity score with FMOC02_1 amounted to 3.3; in the experiment with FMOC02_2 it was 1.6; in the experiment with FMOC02_3, 1.8; with FMOC03, 3; in the experiment on FMOC04, 0; in the experiment on FMOC06 it was 0.3. The drug sensitivity score in the experiment on FMOC09 is 0; with FMOC11, 1.6; with FMOC14, 1.3; with FMOC17 it was 1; with FMOC22 it was 2.5; with FMOC24, 1.65. Further, the drug sensitivity score came out at 1.7 in the experiment on FMOC25_1, 1.6 in the experiment with FMOC25_2, 0 in the experiment on FMOC27 and 2.6 in the experiment on FMOC28.

Regarding `CC1(C)CCC(CN2CCN(c3ccc(C(=O)NS(=O)(=O)c4ccc(NCC5CCOCC5)c([N+](=O)[O-])c4)c(Oc4cnc5[nH]ccc5c4)c3)CC2)=C(c2ccc(Cl)cc2)C1` [Venetoclax], the drug sensitivity score in the experiment with FMOC02_1, in the experiment on FMOC02_2, in the experiment on FMOC02_3, in the experiment with FMOC03, in the experiment with FMOC04 and in the experiment with FMOC06 was 0 in each case. The drug sensitivity score in the experiment with FMOC09 was 0; in the experiment with FMOC11, 0; in the experiment on FMOC14 it was 0; in the experiment on FMOC17 it was 0; with FMOC22, 0; in the experiment with FMOC24, 1.8. Further, the drug sensitivity score with FMOC25_1 amounted to 0; in the experiment with FMOC25_2 it was 0; in the experiment with FMOC27, 0.3; in the experiment on FMOC28, 0.

With `CS(=O)(=O)c1ccc(C(=O)Nc2ccc(Cl)c(-c3ccccn3)c2)c(Cl)c1` [Vismodegib], the drug sensitivity score in the experiment with FMOC02_1 was found to be 0; with FMOC02_2, 0.4; with FMOC02_3, 0; in the experiment with FMOC03, 0.6; in the experiment on FMOC04, 0; in the experiment on FMOC06, 0.3. In addition, the drug sensitivity score in the experiment on FMOC09 worked out at 0; in the experiment with FMOC11, 0; with FMOC14, 0; with FMOC17, 0; in the experiment on FMOC22 it was 0; in the experiment with FMOC24 it was 1.95. For the same compound, the drug sensitivity score in the experiment with FMOC25_1 was 0; in the experiment on FMOC25_2, 0; in the experiment on FMOC27, 0.8; in the experiment on FMOC28 it was 0.
